Experimental data as given in PubChem BioAssay AID1963832 (Molecular Pharmacology Branch, DTP, NCI, 2024).

System: 885724-159-R-J1-PDC complex spheroid viability
Test: Anticancer human tumor 885724-159-R-J1-PDC patient-derived pancreatic adenocarcinoma cell line growth inhibition [POLQ]
Details: for IC50: curve of first compound; for viability, T/C: stronger effect = lower value
Outline: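 Growth inhibition in 3D: complex spheroids (tumor PDC, HUVEC, MSC) treated with POLQ inhibitor combinations; where Cmax unknown, highest tested concentration 10 microM, except SN-38 at 1 microM.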

[1] = second compound 0.0316 µM, first compound 0.0316 µM
[2] = second compound 0.0316 µM, first compound 0.1 µM
[3] = second compound 0.0316 µM, first compound 0.316 µM
[4] = second compound 0.0316 µM, first compound 1 µM
[5] = second compound 0.0316 µM, first compound 3.16 µM
[6] = second compound 0.0316 µM, first compound 10 µM
[7] = second compound 0.1 µM, first compound 0.0316 µM
[8] = second compound 0.1 µM, first compound 0.1 µM
[9] = second compound 0.1 µM, first compound 0.316 µM
[10] = second compound 0.1 µM, first compound 1 µM
[11] = second compound 0.1 µM, first compound 3.16 µM
[12] = second compound 0.1 µM, first compound 10 µM
[13] = second compound 0.316 µM, first compound 0.0316 µM
[14] = second compound 0.316 µM, first compound 0.1 µM
[15] = second compound 0.316 µM, first compound 0.316 µM
[16] = second compound 0.316 µM, first compound 1 µM
[17] = second compound 0.316 µM, first compound 3.16 µM
[18] = second compound 0.316 µM, first compound 10 µM
[19] = second compound 1 µM, first compound 0.0316 µM
[20] = second compound 1 µM, first compound 0.1 µM
[21] = second compound 1 µM, first compound 0.316 µM
[22] = second compound 1 µM, first compound 1 µM
[23] = second compound 1 µM, first compound 3.16 µM
[24] = second compound 1 µM, first compound 10 µM
[25] = second compound 3.16 µM, first compound 0.0316 µM
[26] = second compound 3.16 µM, first compound 0.1 µM
[27] = second compound 3.16 µM, first compound 0.316 µM
[28] = second compound 3.16 µM, first compound 1 µM
[29] = second compound 3.16 µM, first compound 3.16 µM
[30] = second compound 3.16 µM, first compound 10 µM
[31] = second compound 10 µM, first compound 0.0316 µM
[32] = second compound 10 µM, first compound 0.1 µM
[33] = second compound 10 µM, first compound 0.316 µM
[34] = second compound 10 µM, first compound 1 µM
[35] = second compound 10 µM, first compound 3.16 µM
[36] = second compound 10 µM, first compound 10 µM
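Note: spheroids exposed to compounds for 7 days.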

## C#Cc1c(F)ccc2cc(O)cc(-c3ncc4c(N5CC6CCC(C5)N6)nc(OCC56CCCN5CC(F)C6)nc4c3F)c12 (centres undefined) + Nc1ccc(C#CCN(C(=O)Cc2ncc(C(F)(F)F)cc2C(F)(F)F)c2ccc(F)cc2)nn1
Second compound 0.0316 µM
  IC50: 2190 nM
Second compound 0.1 µM
  IC50: 3200 nM
Second compound 0.316 µM
  IC50: 2780 nM
Second compound 1 µM
  IC50: 2950 nM
Second compound 3.16 µM
  IC50: 3040 nM
Second compound 10 µM
  IC50: 3030 nM
[1]
  viability, T/C: 90.8%
[2]
  viability, T/C: 92.6%
[3]
  viability, T/C: 90.7%
[4]
  viability, T/C: 64.2%
[5]
  viability, T/C: 44.2%
[6]
  viability, T/C: 23.8%
[7]
  viability, T/C: 95.9%
[8]
  viability, T/C: 100%
[9]
  viability, T/C: 93.9%
[10]
  viability, T/C: 73%
[11]
  viability, T/C: 52.1%
[12]
  viability, T/C: 25.3%
[13]
  viability, T/C: 116%
[14]
  viability, T/C: 88.4%
[15]
  viability, T/C: 84.3%
[16]
  viability, T/C: 71.2%
[17]
  viability, T/C: 50.6%
[18]
  viability, T/C: 23.4%
[19]
  viability, T/C: 89.9%
[20]
  viability, T/C: 96.6%
[21]
  viability, T/C: 86.7%
[22]
  viability, T/C: 71.3%
[23]
  viability, T/C: 49.6%
[24]
  viability, T/C: 24.2%
[25]
  viability, T/C: 85.3%
[26]
  viability, T/C: 87.2%
[27]
  viability, T/C: 89.1%
[28]
  viability, T/C: 75.9%
[29]
  viability, T/C: 49.5%
[30]
  viability, T/C: 24.5%
[31]
  viability, T/C: 98.6%
[32]
  viability, T/C: 89%
[33]
  viability, T/C: 96.8%
[34]
  viability, T/C: 72.6%
[35]
  viability, T/C: 50.4%
[36]
  viability, T/C: 22.9%

## CC1COCCN1c1cc(C2(O)CC3CCC(C2)O3)c2cnn(-c3ccn[nH]3)c2n1 (centres undefined) + Nc1ccc(C#CCN(C(=O)Cc2ncc(C(F)(F)F)cc2C(F)(F)F)c2ccc(F)cc2)nn1
Second compound 0.0316 µM
  IC50: 321 nM
Second compound 0.1 µM
  IC50: 237 nM
Second compound 0.316 µM
  IC50: 177 nM
Second compound 1 µM
  IC50: 237 nM
Second compound 3.16 µM
  IC50: 202 nM
Second compound 10 µM
  IC50: 236 nM
[1]
  viability, T/C: 72.7%
[2]
  viability, T/C: 54.7%
[3]
  viability, T/C: 50.8%
[4]
  viability, T/C: 42.6%
[5]
  viability, T/C: 36.3%
[6]
  viability, T/C: 26.8%
[7]
  viability, T/C: 77.8%
[8]
  viability, T/C: 58.3%
[9]
  viability, T/C: 46.2%
[10]
  viability, T/C: 40.6%
[11]
  viability, T/C: 37.4%
[12]
  viability, T/C: 31.4%
[13]
  viability, T/C: 72.4%
[14]
  viability, T/C: 52.5%
[15]
  viability, T/C: 45.2%
[16]
  viability, T/C: 38.9%
[17]
  viability, T/C: 39.9%
[18]
  viability, T/C: 28.4%
[19]
  viability, T/C: 65.2%
[20]
  viability, T/C: 51.5%
[21]
  viability, T/C: 47.7%
[22]
  viability, T/C: 43.6%
[23]
  viability, T/C: 35.9%
[24]
  viability, T/C: 27%
[25]
  viability, T/C: 67%
[26]
  viability, T/C: 53%
[27]
  viability, T/C: 45.4%
[28]
  viability, T/C: 43.5%
[29]
  viability, T/C: 35.3%
[30]
  viability, T/C: 30.4%
[31]
  viability, T/C: 62.9%
[32]
  viability, T/C: 53%
[33]
  viability, T/C: 49.4%
[34]
  viability, T/C: 41.8%
[35]
  viability, T/C: 37%
[36]
  viability, T/C: 30.5%
